pEC50: −log10 of the molar value.
Key:
[1] = tested on: SARS-CoV-2 Delta variant; test: microbe, parasite or virus in culture; type: cell-based; details: Severe acute respiratory syndrome coronavirus 2; Caco-2 cells, dsRNA immunofluorescence
[2] = tested on: SARS-CoV-2 Omicron variant; test: microbe, parasite or virus in culture; type: cell-based; details: Severe acute respiratory syndrome coronavirus 2; Caco-2 cells, dsRNA immunofluorescence; read-out: EC50 Omikron

[2H]C([2H])([2H])Oc1cccc(-c2cc(F)c(NC(=O)c3ccsc3C(=O)NOC)c(F)c2)c1 [Example 9, N3-(3,5-Difluoro-3′-(methoxy-d3)-[1,1′-biphenyl]-4-yl)-N2-methoxythiophene-2,3-di-carboxamide]
pEC50 [1]: > 8.52
pEC50 [2]: > 8.52
